According to ChEMBL document CHEMBL3044770, “Studies on toxicity of antitubercular drugs namely isoniazid, rifampicin, and pyrazinamide in an in vitro model of HepG2 cell line” (Med Chem Res, 2011):

What was measured:
Format in all cases: cell-based
[1] = Toxicity in Homo sapiens (human) HepG2 cells assessed as cell viability at 50 mM after 24 hr by MTT assay; conditions: read-out: Activity
[2] = Toxicity in Homo sapiens (human) HepG2 cells assessed as cell viability at 10 mM after 24 hr by MTT assay; conditions: read-out: Activity
[3] = Toxicity in Homo sapiens (human) HepG2 cells assessed as cell viability at 5 mM after 24 hr by MTT assay; conditions: read-out: Activity
[4] = Toxicity in Homo sapiens (human) HepG2 cells assessed as cell viability at 1 mM after 24 hr by MTT assay; conditions: read-out: Activity
[5] = Toxicity in pyrazinamide pretreated Homo sapiens (human) HepG2 cells assessed as cell viability at 200 mM after 24 hr by MTT assay; conditions: HepG2 cells pretreated with pyrazinamide, read-out: Activity
[6] = tested on: HepG2; assay: Toxicity in Homo sapiens (human) HepG2 cells assessed as change in cell morphology at 1 mM after 24 hr by phase contrast microscopic analysis; conditions: hepg2, 24 h, 1000 µM
[7] = Toxicity in isoniazid pretreated Homo sapiens (human) HepG2 cells assessed as cell viability at 200 mM after 24 hr by MTT assay; conditions: HepG2 cells pretreated with isoniazid, read-out: Activity
[8] = Toxicity in Homo sapiens (human) HepG2 cells assessed as cell viability at 100 uM after 24 hr by MTT assay; conditions: read-out: Activity
[9] = Toxicity in Homo sapiens (human) HepG2 cells assessed as cell viability at 50 uM after 24 hr by MTT assay; conditions: read-out: Activity
[10] = Toxicity in Homo sapiens (human) HepG2 cells assessed as cell viability at 25 uM after 24 hr by MTT assay; conditions: read-out: Activity

Row | SMILES | viability at 24 h, 50000 µM [1] [%] | viability at 24 h, 10000 µM [2] [%] | viability at 24 h, 5000 µM [3] [%] | viability at 24 h, 1000 µM [4] [%] | viability at 24 h, 200000 µM [5] [%] | Activity [6] | viability at 24 h, 200000 µM [7] [%] | viability at 24 h, 100 µM [8] [%] | viability at 24 h, 50 µM [9] [%] | viability at 24 h, 25 µM [10] [%]
1 | NNC(=O)c1ccncc1 [ISONIAZID] | 91.3 | 129 | 99.7 | 125 | 56.1 | Non-toxic |  |  |  | 
2 | NC(=O)c1cnccn1 [PYRAZINAMIDE] | 102 | 104 | 102 | 87.7 |  | Non-toxic | 60.1 |  |  | 
3 | CO[C@H]1/C=C/O[C@@]2(C)Oc3c(C)c(O)c4c(O)c(c(/C=N/N5CCN(C)CC5)c(O)c4c3C2=O)NC(=O)/C(C)=C\C=C\[C@H](C)[C@H](O)[C@@H](C)[C@@H](O)[C@@H](C)[C@H](OC(C)=O)[C@@H]1C [RIFAMPIN] |  |  |  |  |  |  |  | 192 | 116 | 115
